Data on four molecules can be found in patent US8703811B2, “Small molecule inhibitors of Plasmodium falciparum dihydroorotate dehydrogenase” (Genzyme Corporation, priority 2008, dated 2014).

Read-outs that look alike come from different tables or passages of the source.

The target of one data set is pfDHODH (Plasmodium falciparum (isolate 3D7), UniProt Q08210). The data set can be described thus: DHODH chromogen reduction (DCIP) assay, pfDHODH. The conditions noted are these: for IC50: read-out: pfDHODH IC50. Type of data set: biochemical, P. falciparum.
The target in the next data set is hsDHODH (Homo sapiens (Human), UniProt Q02127). Kind of data set: DCIP assay, hsDHODH. It is filed as biochemical.
Another data set relates to P. falciparum 3D7. Kind of data set: Inhibition of in vitro P. falciparum culture, [3H]-hypoxanthine uptake, 3D7. Type of data set: cell-based. The conditions noted are these: for EC50: read-out: 3D7 EC50; for IC50: read-out: 3D7 IC50. In short, it runs like this:
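Parasite growth inhibition measured as relative reduction of [3H]-hypoxanthine uptake in in vitro cultures. Values from non-linear regression fit, using relative growth velocity in place of product-formation rate.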

Another data set in a line: Log D measurement. Type of data set: physicochemical. The source says:
Many standard techniques are known in the art to establish the distribution coefficient of a compound between two particular solvents. The following description is one such technique that could be used to determine the distribution coefficient: The shake-flask method, which consists of dissolving some of the compound in a volume of octanol and water, then physically shaking the mixture and allowing the two solvents to fully separate. The concentration of the compound in each solvent is then measured. The most common method of measuring the distribution of the solute is by HPLC or UV/Vis spectroscopic techniques.

Data set [1] is described as follows: Normal Human Dermal Fibroblast Toxicity Screen. It is filed as cell-based. The following applies: human, normal human dermal fibroblasts; four days exposure, Alamar Blue; read-out: Dermal Fibroblast LC50. The protocol: The Normal Human Dermal Fibroblast Toxicity Screen Protocol is designed to determine whether compound mixtures, breakouts or single compounds are toxic to normal human dermal fibroblasts. The screen involves plating the dermal fibroblasts and then exposing them to the compounds for four days, then cell viability is measured using Alamar Blue reagent.
Harvested Dermal Fibroblast cells were diluted in Growth Media to 0.25 to 0.3×10^5 cells/mL. […] NOTE: One plate, the T=0 plate required that 20-30 wells be seeded and all the other plates had 96 wells seeded. Plates were incubated in 37° C./5% CO2 incubator for 24 hours.
Alamar Blue solution (25 μL/well) was added to the T=0 plate and the plate was agitated. The plate in 37° C./5% CO2 incubator was incubated for 3 hours, agitated the and the fluorescence was measured. 10% Tween 20 stock (10 μL) was added into rows A-D in column 1 (positive control). DMSO (0.5 μL) was added into column 2 (negative control). Compounds were placed into designated wells for desired testing as follows:
Plates were mixed on the shaker, then incubated in 37° C./5% CO2 incubator for 96 hours.
Alamar Blue solution (25 μL/well) was added to the plates containing the compounds, and the plates were agitated. The plates were incubated in 37° C./5% CO2 incubator for 3 hours, agitated and then the fluorescence was measured.
A general note: Alamar Blue is a resazurin reagent that responds to reducing activity.

Where [2] appears, read: Table 3, DCIP assay, 20 nM pfDHODH.
Where [3] appears, read: Table 2b, read-out: Hu (human DHODH) IC50.
Where [4] appears, read: Table 3, DCIP assay, 20 nM hsDHODH, read-out: hsDHODH IC50.
The mark [5] stands for this setting: Plasmodium falciparum, 3D7, Table 2b.
The mark [6] stands for this setting: Plasmodium falciparum, 3D7, Table 3, [3H]-hypoxanthine uptake.

In general, IC50 refers to the concentration needed to halve the response being measured. What is called EC50 is the concentration at which the effect is half-maximal. Broadly, the logD is the decadic logarithm of the distribution of all forms, ionised or not, between an organic phase and buffer at a given pH. For orientation: inhibition means the drop in the measured response relative to a control, in per cent.

pfDHODH, sequence (Q08210 159-565 limits assumed): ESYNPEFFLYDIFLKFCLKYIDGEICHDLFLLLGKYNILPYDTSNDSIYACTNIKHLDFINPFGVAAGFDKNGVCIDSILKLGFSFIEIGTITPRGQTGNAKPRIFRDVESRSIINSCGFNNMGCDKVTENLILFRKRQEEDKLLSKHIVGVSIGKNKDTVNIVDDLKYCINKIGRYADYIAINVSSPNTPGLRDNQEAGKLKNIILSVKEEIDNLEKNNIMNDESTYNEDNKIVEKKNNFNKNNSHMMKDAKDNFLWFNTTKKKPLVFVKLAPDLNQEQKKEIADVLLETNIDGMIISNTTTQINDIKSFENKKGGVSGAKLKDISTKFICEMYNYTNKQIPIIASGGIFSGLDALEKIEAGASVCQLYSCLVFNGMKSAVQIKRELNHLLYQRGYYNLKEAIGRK
hsDHODH, sequence (Q02127 29-395 limits assumed): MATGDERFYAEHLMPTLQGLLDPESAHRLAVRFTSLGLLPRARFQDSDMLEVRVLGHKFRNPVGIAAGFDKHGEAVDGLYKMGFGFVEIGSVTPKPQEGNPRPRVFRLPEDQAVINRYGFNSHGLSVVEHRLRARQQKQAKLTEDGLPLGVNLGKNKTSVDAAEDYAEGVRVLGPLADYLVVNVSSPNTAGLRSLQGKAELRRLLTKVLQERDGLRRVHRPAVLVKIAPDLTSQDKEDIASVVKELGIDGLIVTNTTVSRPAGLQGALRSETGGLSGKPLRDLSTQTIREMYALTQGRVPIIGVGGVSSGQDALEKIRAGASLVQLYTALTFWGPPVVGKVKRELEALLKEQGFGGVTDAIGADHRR

For the molecule “5-(1H-indol-1-yl)-N-propylthiophene-2-carboxamide [Compound 7]”, the IC50 on pfDHODH (Table 2b) is 459 nM; at pfDHODH (setting [2]), 460 nM; at hsDHODH (setting [3]), more than 30000 nM; on hsDHODH (setting [4]) it was more than 30000 nM; in the data set with P. falciparum 3D7 (Table 3, [3H]-hypoxanthine uptake), 710 nM. Also, the EC50 in the data set with P. falciparum 3D7 (Table 2b) was 708 nM. In the data set “Log D measurement”, this molecule showed a logD of more than 3.5.

As for `CCCNC(=O)c1ccc(-n2cnc3ccccc32)s1` [Compound 11, 5-(1H-benzo[d]imidazol-1-yl)-N-propylthiophene-2-carboxamide], the IC50 on pfDHODH (Table 2b) was 703 nM; on pfDHODH (setting [2]), 700 nM; at hsDHODH (setting [3]) it was more than 30000 nM; at hsDHODH (setting [4]), more than 30000 nM; in the data set with P. falciparum 3D7 (setting [6]), 470 nM. Also, in the data set on P. falciparum 3D7 (setting [5]), the EC50 worked out at 472 nM. The logD in “Log D measurement” (octanol/water, read-out: LogD) came to 3.3. Further, in data set [1], the CC50 at 96 h is more than 62000 nM.

`CCCNC(=O)c1ccc(-n2c(C)nc3ccccc32)s1` [Compound 12, 5-(2-methyl-1H-benzo[d]imidazol-1-yl)-N-propylthiophene-2-carboxamide]: the 50% inhibitory concentration (IC50) is 172 nM at pfDHODH (Table 2b); 170 nM at pfDHODH (setting [2]); more than 30000 nM at hsDHODH (setting [3]); more than 30000 nM on hsDHODH (setting [4]); 630 nM with P. falciparum 3D7 (setting [6]). Also, the EC50 with P. falciparum 3D7 (setting [5]) was 628 nM. For the same molecule, the logD in “Log D measurement” (octanol/water, read-out: LogD) was found to be 3.4. The CC50 at 96 h in data set [1] was more than 62000 nM.

Turning to `CCCNC(=O)c1ccc(-n2c(C)cc3ccccc32)s1` [Compound 1, 5-(2-methyl-1H-indol-1-yl)-N-propylthiophene-2-carboxamide], the inhibition at 50 µM at pfDHODH (50 μM inhibitor, 200 μM L-DHO, 100 μM CoQD, 60 μM DCIP, read-out: % Inhibition of Product Formation Rate with 50 μM Inhibitor, CoQD) amounted to 104%. The IC50 is 42 ± 7 nM at pfDHODH (DCIP assay, 200 μM L-DHO, 18 μM CoQD, 100 μM DCIP, 20 nM enzyme); 64 nM on pfDHODH (Table 2b); 70 nM on pfDHODH (setting [2]); more than 30000 nM at hsDHODH (DCIP assay, 200 μM L-DHO, 18 μM CoQD, 100 μM DCIP, 20 nM enzyme, read-out: hsDHODH IC50); more than 30000 nM at hsDHODH (setting [3]); more than 30000 nM on hsDHODH (setting [4]). Moreover, the IC50 in the data set on P. falciparum 3D7 (Plasmodium falciparum, 3D7, Erythrocyte, [3H]-hypoxanthine uptake by parasite infected erythrocytes) worked out at 470 nM; in the data set on P. falciparum 3D7 (setting [6]), 390 nM. Besides, in the data set on P. falciparum 3D7 (setting [5]), the EC50 was determined as 386 nM. In the data set “Log D measurement” (octanol/water, read-out: LogD), the logD is more than 3.5. In data set [1], the CC50 at 96 h is more than 62000 nM.
